Measured values published in BindingDB's records for doi:10.1016/j.bmcl.2010.06.021 (Shujitsu University, 2010).

Biological target: Beta-secretase 1 (Homo sapiens, UniProt P56817)
Experiment: Inhibition of BACE1 after 60 mins by FRET assay

Sequence of Beta-secretase 1 (P56817 whole entry): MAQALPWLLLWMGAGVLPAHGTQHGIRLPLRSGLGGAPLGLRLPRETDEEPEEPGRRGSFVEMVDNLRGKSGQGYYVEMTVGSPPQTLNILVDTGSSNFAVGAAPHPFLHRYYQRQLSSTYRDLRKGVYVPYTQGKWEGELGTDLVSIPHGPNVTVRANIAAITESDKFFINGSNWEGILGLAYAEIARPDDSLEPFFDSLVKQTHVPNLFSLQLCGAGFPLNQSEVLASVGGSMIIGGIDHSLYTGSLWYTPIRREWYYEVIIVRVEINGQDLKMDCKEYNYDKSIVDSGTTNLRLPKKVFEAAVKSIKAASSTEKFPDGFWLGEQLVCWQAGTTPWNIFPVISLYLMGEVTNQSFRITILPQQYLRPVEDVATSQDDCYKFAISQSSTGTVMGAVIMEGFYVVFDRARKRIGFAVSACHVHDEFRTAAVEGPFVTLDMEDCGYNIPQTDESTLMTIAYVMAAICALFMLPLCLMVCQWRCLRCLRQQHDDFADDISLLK

| Compound | IC50 |
| --- | --- |
| COc1ccc(-c2cc(=O)c3c(O)cc(OC)c(-c4cc(-c5cc(O)c6c(=O)cc(O)cc-6o5)ccc4O)c3o2)cc1 [7'',4'''-dimethylamentoflavone] | > 10 µM |
| COc1ccc(-c2cc(=O)c3c(O)cc(OC)c(-c4cc(-c5cc(O)c6c(=O)cc(OC)cc-6o5)ccc4OC)c3o2)cc1 [7,4',7'',4'''-O-methyl-amentoflavone] | > 10 µM |
| COc1cc2oc(-c3ccc(OC)c(-c4c(OC)cc(O)c5c(=O)cc(-c6ccc(O)cc6)oc45)c3)cc(O)c-2c(=O)c1 [7-O-methyl-isoginkgetin] | > 10 µM |
| O=c1cc(O)cc2oc(-c3ccc(O)c(-c4c(O)cc5oc(-c6ccc(O)cc6)cc(=O)c5c4O)c3)cc(O)c1-2 | > 10 µM |
| COc1ccc(-c2cc(=O)c3c(O)cc(OC)c(-c4cc(-c5cc(O)c6c(=O)cc(OC)cc-6o5)ccc4O)c3o2)cc1 [heveaflavone] | > 10 µM |
| O=c1cc(O)cc2oc(-c3ccc(Oc4c(O)cc5oc(-c6ccc(O)cc6)cc(=O)c5c4O)cc3)cc(O)c1-2 | > 10 µM |
| COc1ccc(-c2cc(O)c3c(=O)cc(O)cc-3o2)cc1-c1c(OC)cc(O)c2c(=O)cc(-c3ccc(O)cc3)oc12 [4',7''-di-O-methyl-amentoflavone] | > 10 µM |
| COc1ccc(-c2cc(=O)c3c(O)cc(OC)c(-c4cc(-c5cc(O)c6c(=O)cc(O)cc-6o5)ccc4OC)c3o2)cc1 [kayaflavone] | > 10 µM |
| COc1ccc(-c2cc(=O)c3c(O)cc(O)c(-c4cc(-c5cc(O)c6c(=O)cc(OC)cc-6o5)ccc4OC)c3o2)cc1 [sciadopitisin] | > 10 µM |
